Measurements from patent US12433867B2, “Pharmaceutical composition comprising FLT3 inhibitor and hypomethylating agent for treating acute myeloid leukemia” (HANMI PHARM. CO., LTD, priority 2019, dated 2025).

Columns and labels:
MOLM-13-Luc2 cell line = test: Mouse model xenografted with MOLM-13-Luc2 cell line, survival; type: in vivo; details: NOG mouse, MOLM-13-Luc2 i.v.; Compound A 10 mg/kg/day oral once a day; azacitidine 3 mg/kg/day i.p. twice a week
Procedure: A comparison of Compound A and azacitidine or an efficacy test of combination thereof was conducted in a mouse model xenografted with a MOLM-13-Luc2 cell line which is a MOLM-13 cell line genetically modified to express luciferase.
The MOLM-13-Luc2 cell line was injected to a tail vein of NOG mouse at 5×10^6 cells/0.1 mL/mouse, and allowed to grow.
Bioluminescence images of MOLM-13-Luc2 cells were measured using a Lumina III IVIS imaging system (PerkinElmer) and quantified using a Living image software (PerkinElmer). When measured, D-luciferin (D-luciferin) was intraperitoneally injected to mice, and imaging was were performed under anesthesia using isoflurane. Images were measured for a first group separation during the experiment, and then measured on a specific day according to the purpose of the test.
A control group orally received a DMSO/PEG400/DW (ratio=0.5/2/7.5, v/v) mixed solution once a day, and a Compound A group was orally administered once a day at a dose of 10 mg/kg/day. An azacitidine group which is a hypomethylating agent (HMA) group was intraperitoneally administered at a dose of 3 mg/kg/day twice a week (on day 1 and day 4 of the week). A combination group was orally administered with Compound A at a dose of 10 mg/kg/day once a day, and azacitidine was intraperitoneally administered at a dose of 3 mg/kg/day twice a week (on day 1 and day 4 every week). Each group received individual drugs until all subjects in each group died.
The Y-axis represents a percentage (%) of surviving mice (survival rate) in each experimental group, and the X-axis represents the number of days of administration.

[1] = tested on: MOLM-13 (DSMZ no. ACC 554) cell line; test: MOLM-13 cell growth inhibition (CellTiter-Glo), Compound A alone or combined with azacitidine; type: cell-based
Procedure: By examining growth inhibition of an MOLM-13 (DSMZ no. ACC 554) cell line which was treated with, in combination, an FLT3 inhibitor, 5-chloro-N-(3-cyclopropyl-5-(((3R,5S)-3,5-dimethylpiperazin-1-yl)methyl)phenyl)-4-(6-methyl-1H-indol-3-yl)pyrimidin-2-amine (hereinafter, Compound A) and a hypomethylating agent (HMA), 4-amino-1-β-D-ribofuranosyl-1,3,5-triazin-2(1H)-one (hereinafter, azacitidine), an effect of combined treatment of the two drugs was tested. The MOLM-13 cell line cultured in an RPMI 1640 culture medium (RPMI=Rosewell Parker Memory Institute) supplemented with 20% FBS was inoculated at a density of 2×10^4 cells per well in a 96-well plate, and Compound A was subjected to ½ serial dilution at predetermined concentrations (e.g., 10 nM to 0.078 nM) using the same culture medium. […] To measure cell viability, a CellTiter-Glo® (CTG) assay was performed, and for result analysis, 50% cell growth inhibition (GI50) was calculated using a GraphPad Prism software.

[2] = tested on: Ba/F3 cells expressed in an FLT3 ITD/D835Y xenografted mouse model; test: In vivo study, Ba/F3 FLT3 ITD/D835Y xenografted mouse model
[3] = tested on: Ba/F3 cells expressed in an FLT3 ITD/F691L xenografted mouse model; test: In vivo study, Ba/F3 FLT3 ITD/F691L xenografted mouse model

In the case of Nc1ncn([C@@H]2O[C@H](CO)[C@@H](O)[C@H]2O)c(=O)n1 [Azacitidine, 4-amino-1-β-D-ribofuranosyl-1,3,5-triazin-2(1H)-one, reference compound], the median survival period (MOLM-13-Luc2 cell line) is reported as 16 days, the overall survival period (MOLM-13-Luc2 cell line) is reported as 18 days and the “GI40 (concentration inhibiting MOLM-13 cell growth by about 40%)” value ([1]; MOLM-13 cells) is reported as 800 nM.
In the case of Cc1ccc2c(-c3nc(Nc4cc(CN5C[C@@H](C)N[C@@H](C)C5)cc(C5CC5)c4)ncc3Cl)c[nH]c2c1 [Compound A, 5-chloro-N-(3-cyclopropyl-5-(((3R,5S)-3,5-dimethylpiperazin-1-yl)methyl)phenyl)-4-(6-methyl-1H-indol-3-yl)pyrimidin-2-amine], the median survival period (MOLM-13-Luc2 cell line) is reported as 17 days, the overall survival period (MOLM-13-Luc2 cell line) is reported as 20 days and the “therapeutic effect / overcoming resistance caused by FLT3 mutations” value [2] is reported as “shows therapeutic effects”. The “therapeutic effect / overcoming resistance caused by FLT3 mutations” value [3] was “shows therapeutic effects” and the GI50 ([1]; Homo sapiens, 72 h, MOLM-13, incubation 3 days, CTG assay, combination with azacitidine at 800 nM, GI50 as Compound A concentration) was 2.5 nM.
